Literature values in US6599496B2, “Endoscopy tissue stain” (Chek-Med Systems, Inc., priority 1999, dated 2003).

Tested on: colon
Conditions: Hammond et al.

Q: With `CC1(C)C(/C=C/C=C/C=C/C=C2\N(CCCCS(=O)(=O)O)c3ccc4ccccc4c3C2(C)C)=[N+](CCCCS(=O)(=O)[O-])c2ccc3ccccc3c21` [Indocyanine green] as the compound, how does the “permanence of the marking of lesions of the colon” value read?
A: does not have long term permanence
